Assay results as given in patent publication US9113629B2, “4-amino-6-(4-substituted-phenyl)-picolinates and 6-amino-2-(4-substituted-phenyl)-pyrimidine-4-carboxylates and their use as herbicides” (DOW AGROSCIENCES LLC, priority 2013, dated 2015).

Test system: not given
Experiment: not given
Conditions: not given

melting point | Structure (SMILES)
111 to 114 °C | COC(=O)c1nc(-c2ccc(Cl)c(F)c2)c(F)c(N)c1Cl [Compound 216]

Test system: Key Grass and Sedge Weeds as well as Grass Crops
Experiment: Post-emergent Test II herbicidal activity (Table 6)
Assay type: in vivo
Conditions: post-emergence, 336 h, CYPES: yellow nutsedge (Cyperus esculentus), 70 g ai/ha, read-out: Visual Growth Reduction (%) 14 Days After Application, CYPES
Method in brief: (§1)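 Plants grown in Metro-Mix 360 (pH 6.0–6.8) in a greenhouse (~15 h photoperiod, 23–29 °C day) to first or second true leaf stage, then sprayed with compound in acetone/DMSO/aqueous crop-oil-surfactant carrier at 187 L/ha by track sprayer. Injury visually scored 0–100% versus untreated plants after 14 d.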

Structure (SMILES) | pest or weed control at 70 g/ha
COC(=O)c1nc(-c2ccc(Cl)c(F)c2)c(F)c(N)c1Cl [Compound 216] | 85 to 94%

Same assay, conditions: post-emergence, 336 h, CYPES: yellow nutsedge (Cyperus esculentus), 140 g ai/ha, read-out: Visual Growth Reduction (%) 14 Days After Application, CYPES

Structure (SMILES) | pest or weed control at 140 g/ha
COC(=O)c1nc(-c2ccc(Cl)c(F)c2)c(F)c(N)c1Cl [Compound 216] | 95 to 100%

Same assay, conditions: post-emergence, 336 h, DIGSA: crabgrass (Digitaria sanguinalis), 70 g ai/ha, read-out: Visual Growth Reduction (%) 14 Days After Application, DIGSA

Structure (SMILES) | pest or weed control at 70 g/ha
COC(=O)c1nc(-c2ccc(Cl)c(F)c2)c(F)c(N)c1Cl [Compound 216] | 30 to 44%

Same assay, conditions: post-emergence, 336 h, DIGSA: crabgrass (Digitaria sanguinalis), 140 g ai/ha, read-out: Visual Growth Reduction (%) 14 Days After Application, DIGSA

Structure (SMILES) | pest or weed control at 140 g/ha
COC(=O)c1nc(-c2ccc(Cl)c(F)c2)c(F)c(N)c1Cl [Compound 216] | 75 to 84%

Same assay, conditions: post-emergence, 336 h, ECHCG: barnyardgrass (Echinochloa crus-galli), 70 g ai/ha, read-out: Visual Growth Reduction (%) 14 Days After Application, ECHCG

Structure (SMILES) | pest or weed control at 70 g/ha
COC(=O)c1nc(-c2ccc(Cl)c(F)c2)c(F)c(N)c1Cl [Compound 216] | 95 to 100%

Same assay, conditions: post-emergence, 336 h, ECHCG: barnyardgrass (Echinochloa crus-galli), 140 g ai/ha, read-out: Visual Growth Reduction (%) 14 Days After Application, ECHCG

Structure (SMILES) | pest or weed control at 140 g/ha
COC(=O)c1nc(-c2ccc(Cl)c(F)c2)c(F)c(N)c1Cl [Compound 216] | 95 to 100%

Same assay, conditions: post-emergence, 336 h, ORYSA: rice (Oryza sativa), crop, 70 g ai/ha, read-out: Visual Growth Reduction (%) 14 Days After Application, ORYSA

Structure (SMILES) | pest or weed control at 70 g/ha
COC(=O)c1nc(-c2ccc(Cl)c(F)c2)c(F)c(N)c1Cl [Compound 216] | 0 to 29%

Same assay, conditions: post-emergence, 336 h, ORYSA: rice (Oryza sativa), crop, 140 g ai/ha, read-out: Visual Growth Reduction (%) 14 Days After Application, ORYSA

Structure (SMILES) | pest or weed control at 140 g/ha
COC(=O)c1nc(-c2ccc(Cl)c(F)c2)c(F)c(N)c1Cl [Compound 216] | 0 to 29%

Same assay, conditions: post-emergence, 336 h, SETFA: giant foxtail (Setaria faberi), 70 g ai/ha, read-out: Visual Growth Reduction (%) 14 Days After Application, SETFA

Structure (SMILES) | pest or weed control at 70 g/ha
COC(=O)c1nc(-c2ccc(Cl)c(F)c2)c(F)c(N)c1Cl [Compound 216] | 30 to 44%

Same assay, conditions: post-emergence, 336 h, SETFA: giant foxtail (Setaria faberi), 140 g ai/ha, read-out: Visual Growth Reduction (%) 14 Days After Application, SETFA

Structure (SMILES) | pest or weed control at 140 g/ha
COC(=O)c1nc(-c2ccc(Cl)c(F)c2)c(F)c(N)c1Cl [Compound 216] | 45 to 59%

Same assay, conditions: post-emergence, 336 h, SORVU: grain sorghum (Sorghum vulgare), 70 g ai/ha, read-out: Visual Growth Reduction (%) 14 Days After Application, SORVU

Structure (SMILES) | pest or weed control at 70 g/ha
COC(=O)c1nc(-c2ccc(Cl)c(F)c2)c(F)c(N)c1Cl [Compound 216] | 85 to 94%

Same assay, conditions: post-emergence, 336 h, SORVU: grain sorghum (Sorghum vulgare), 140 g ai/ha, read-out: Visual Growth Reduction (%) 14 Days After Application, SORVU

Structure (SMILES) | pest or weed control at 140 g/ha
COC(=O)c1nc(-c2ccc(Cl)c(F)c2)c(F)c(N)c1Cl [Compound 216] | 85 to 94%

Same assay, conditions: post-emergence, 336 h, TRZSS (wheat, Triticum aestivum), crop, 70 g ai/ha, read-out: Visual Growth Reduction (%) 14 Days After Application, TRZSS

Structure (SMILES) | pest or weed control at 70 g/ha
COC(=O)c1nc(-c2ccc(Cl)c(F)c2)c(F)c(N)c1Cl [Compound 216] | 0 to 29%

Same assay, conditions: post-emergence, 336 h, TRZSS (wheat, Triticum aestivum), crop, 140 g ai/ha, read-out: Visual Growth Reduction (%) 14 Days After Application, TRZSS

Structure (SMILES) | pest or weed control at 140 g/ha
COC(=O)c1nc(-c2ccc(Cl)c(F)c2)c(F)c(N)c1Cl [Compound 216] | 30 to 44%

Same assay, conditions: post-emergence, 336 h, ZEAMX: maize, corn (Zea mays), crop, 70 g ai/ha, read-out: Visual Growth Reduction (%) 14 Days After Application, ZEAMX

Structure (SMILES) | pest or weed control at 70 g/ha
COC(=O)c1nc(-c2ccc(Cl)c(F)c2)c(F)c(N)c1Cl [Compound 216] | 85 to 94%

Same assay, conditions: post-emergence, 336 h, ZEAMX: maize, corn (Zea mays), crop, 140 g ai/ha, read-out: Visual Growth Reduction (%) 14 Days After Application, ZEAMX

Structure (SMILES) | pest or weed control at 140 g/ha
COC(=O)c1nc(-c2ccc(Cl)c(F)c2)c(F)c(N)c1Cl [Compound 216] | 85 to 94%

Test system: Key Broadleaf Weed and Crop Species
Experiment: Post-emergent Test II herbicidal activity (Table 5)
Assay type: in vivo
Conditions: post-emergence, 336 h; ABUTH: velvetleaf (Abutilon theophrasti); application rate 70 g ai/ha; 14 days after application; read-out: Visual Growth Reduction (%) 14 Days After Application, ABUTH
Method in brief: as §1

Structure (SMILES) | pest or weed control at 70 g/ha
COC(=O)c1nc(-c2ccc(Cl)c(F)c2)c(F)c(N)c1Cl [Compound 216] | 95 to 100%

Same assay, conditions: post-emergence, 336 h; ABUTH: velvetleaf (Abutilon theophrasti); application rate 140 g ai/ha; 14 days after application; read-out: Visual Growth Reduction (%) 14 Days After Application, ABUTH

Structure (SMILES) | pest or weed control at 140 g/ha
COC(=O)c1nc(-c2ccc(Cl)c(F)c2)c(F)c(N)c1Cl [Compound 216] | 95 to 100%

Same assay, conditions: post-emergence, 336 h; AMARE: redroot pigweed (Amaranthus retroflexus); application rate 70 g ai/ha; 14 days after application; read-out: Visual Growth Reduction (%) 14 Days After Application, AMARE

Structure (SMILES) | pest or weed control at 70 g/ha
COC(=O)c1nc(-c2ccc(Cl)c(F)c2)c(F)c(N)c1Cl [Compound 216] | 95 to 100%

Same assay, conditions: post-emergence, 336 h; AMARE: redroot pigweed (Amaranthus retroflexus); application rate 140 g ai/ha; 14 days after application; read-out: Visual Growth Reduction (%) 14 Days After Application, AMARE

Structure (SMILES) | pest or weed control at 140 g/ha
COC(=O)c1nc(-c2ccc(Cl)c(F)c2)c(F)c(N)c1Cl [Compound 216] | 95 to 100%

Same assay, conditions: post-emergence, 336 h; BRSNN: oilseed-rape, canola (Brassica napus); application rate 70 g ai/ha; 14 days after application; read-out: Visual Growth Reduction (%) 14 Days After Application, BRSNN

Structure (SMILES) | pest or weed control at 70 g/ha
COC(=O)c1nc(-c2ccc(Cl)c(F)c2)c(F)c(N)c1Cl [Compound 216] | 75 to 84%

Same assay, conditions: post-emergence, 336 h; BRSNN: oilseed-rape, canola (Brassica napus); application rate 140 g ai/ha; 14 days after application; read-out: Visual Growth Reduction (%) 14 Days After Application, BRSNN

Structure (SMILES) | pest or weed control at 140 g/ha
COC(=O)c1nc(-c2ccc(Cl)c(F)c2)c(F)c(N)c1Cl [Compound 216] | 85 to 94%

Same assay, conditions: post-emergence, 336 h; CHEAL: lambsquarters (Chenopodium album); application rate 70 g ai/ha; 14 days after application; read-out: Visual Growth Reduction (%) 14 Days After Application, CHEAL

Structure (SMILES) | pest or weed control at 70 g/ha
COC(=O)c1nc(-c2ccc(Cl)c(F)c2)c(F)c(N)c1Cl [Compound 216] | 95 to 100%

Same assay, conditions: post-emergence, 336 h; CHEAL: lambsquarters (Chenopodium album); application rate 140 g ai/ha; 14 days after application; read-out: Visual Growth Reduction (%) 14 Days After Application, CHEAL

Structure (SMILES) | pest or weed control at 140 g/ha
COC(=O)c1nc(-c2ccc(Cl)c(F)c2)c(F)c(N)c1Cl [Compound 216] | 95 to 100%

Same assay, conditions: post-emergence, 336 h; EPHHL: wild poinsettia (Euphorbia heterophylla); application rate 70 g ai/ha; 14 days after application; read-out: Visual Growth Reduction (%) 14 Days After Application, EPHHL

Structure (SMILES) | pest or weed control at 70 g/ha
COC(=O)c1nc(-c2ccc(Cl)c(F)c2)c(F)c(N)c1Cl [Compound 216] | 95 to 100%

Same assay, conditions: post-emergence, 336 h; EPHHL: wild poinsettia (Euphorbia heterophylla); application rate 140 g ai/ha; 14 days after application; read-out: Visual Growth Reduction (%) 14 Days After Application, EPHHL

Structure (SMILES) | pest or weed control at 140 g/ha
COC(=O)c1nc(-c2ccc(Cl)c(F)c2)c(F)c(N)c1Cl [Compound 216] | 95 to 100%

Same assay, conditions: post-emergence, 336 h; HELAN: sunflower (Helianthus annuus); application rate 70 g ai/ha; 14 days after application; read-out: Visual Growth Reduction (%) 14 Days After Application, HELAN

Structure (SMILES) | pest or weed control at 70 g/ha
COC(=O)c1nc(-c2ccc(Cl)c(F)c2)c(F)c(N)c1Cl [Compound 216] | 95 to 100%

Same assay, conditions: post-emergence, 336 h; HELAN: sunflower (Helianthus annuus); application rate 140 g ai/ha; 14 days after application; read-out: Visual Growth Reduction (%) 14 Days After Application, HELAN

Structure (SMILES) | pest or weed control at 140 g/ha
COC(=O)c1nc(-c2ccc(Cl)c(F)c2)c(F)c(N)c1Cl [Compound 216] | 95 to 100%

Same assay, conditions: post-emergence, 336 h; VIOTR: wild pansy (Viola tricolor); application rate 70 g ai/ha; 14 days after application; read-out: Visual Growth Reduction (%) 14 Days After Application, VIOTR

Structure (SMILES) | pest or weed control at 70 g/ha
COC(=O)c1nc(-c2ccc(Cl)c(F)c2)c(F)c(N)c1Cl [Compound 216] | 85 to 94%

Same assay, conditions: post-emergence, 336 h; VIOTR: wild pansy (Viola tricolor); application rate 140 g ai/ha; 14 days after application; read-out: Visual Growth Reduction (%) 14 Days After Application, VIOTR

Structure (SMILES) | pest or weed control at 140 g/ha
COC(=O)c1nc(-c2ccc(Cl)c(F)c2)c(F)c(N)c1Cl [Compound 216] | 95 to 100%
